Here are results for five molecules from patent US9937183B2, “Antimicrobial compounds and methods of making and using the same” (priority 2013, dated 2018).

What all share (format): cell-based
One assay has as its system A. baumannii 1705943. In words: MIC, microtiter-based liquid assay (CLSI). To be noted: Acinetobacter baumannii.
A further assay has as its system B. anthracis. In words: microbe, parasite or virus in culture. To be noted: Bacillus anthracis.
In another assay the test system is A. baumannii 1705936. In words: MIC, microtiter-based liquid assay (CLSI). To be noted: Acinetobacter baumannii, MDR strain.
The next assay relates to E. coli CAG12184 TolC. In words: MIC, microtiter-based liquid assay (CLSI). To be noted: Escherichia coli, CAG12184TOLC.
The test system of the next assay is P. aeruginosa ATCC27853. In words: MIC, microtiter-based liquid assay (CLSI). The conditions noted are these: Pseudomonas aeruginosa.
The next assay has as its system B. mallei. As to the kind of experiment: microbe, parasite or virus in culture. To be noted: Burkholderia mallei; for MIC50: read-out: B. mallei MIC50; for MIC90: read-out: B. mallei MIC90; for MIC: read-out: B. mallei MIC Range.
For a further assay, the system named is K. pneumoniae 1705966. As to the kind of experiment: MIC, microtiter-based liquid assay (CLSI). The conditions noted are these: Klebsiella pneumoniae.
The subject of the next assay is E. coli 1705878. In words: MIC, microtiter-based liquid assay (CLSI). To be noted: Escherichia coli, MDR strain.
For the next assay, the system named is B. pseudomallei. In words: microbe, parasite or virus in culture. The conditions noted are these: Burkholderia pseudomallei.
Another assay has as its system E. coli ATCC25922. In words: MIC, microtiter-based liquid assay (CLSI). To be noted: Escherichia coli.
For another assay, the system named is K. pneumoniae 1705949. As to the kind of experiment: MIC, microtiter-based liquid assay (CLSI). To be noted: Klebsiella pneumoniae, MDR strain.
The test system of a further assay is Y. pestis. As to the kind of experiment: microbe, parasite or virus in culture. The conditions noted are these: for MIC50: read-out: Y. pestis MIC50; for MIC: read-out: Y. pestis MIC Range.
Assay [1] concerns E. faecium A6349 VanA + LNZ-R. As to the kind of experiment: MIC, microtiter-based liquid assay (CLSI). To be noted: Enterococcus faecium.
Another assay concerns E. coli MG1655 parent. As to the kind of experiment: MIC, microtiter-based liquid assay (CLSI). The conditions noted are these: Escherichia coli.
In a further assay the test system is S. aureus 11540 MRSA. In words: MIC, microtiter-based liquid assay (CLSI). The conditions noted are these: Staphylococcus aureus.
For another assay, the system named is P. aeruginosa 1705886. In words: MIC, microtiter-based liquid assay (CLSI). The conditions noted are these: Pseudomonas aeruginosa.
Assay [2] deals with S. pneumoniae 02J1175 Mef(A). As to the kind of experiment: MIC, microtiter-based liquid assay (CLSI). To be noted: Streptococcus pneumoniae.
Another assay deals with F. tularensis. As to the kind of experiment: microbe, parasite or virus in culture. The conditions noted are these: Francisella tularensis; for MIC50: read-out: F. tularensis MIC50; for MIC: read-out: F. tularensis MIC Range.
Another assay concerns P. aeruginosa 1705904. In words: MIC, microtiter-based liquid assay (CLSI). To be noted: Pseudomonas aeruginosa, MDR strain.
Where [3] appears, read: ATCC25922, read-out: MIC E. coli ATCC25922 + 50% HS.
Where [4] appears, read: ATCC25922, read-out: MIC E. coli ATCC25922.

Each structure is given as a SMILES string. ≈ marks a conversion by molar mass, not a printed value. Where two headings read alike, the source gives them in different places.

For the molecule `CC(C)c1cc(CCC[C@H](C)N)cc(-c2cc3cn(-c4ccc([C@H](C)NCCCNC(=N)N)cc4)c(=O)nc3[nH]2)c1F` [Compound 7], the MIC against A. baumannii 1705943 was 0.5 µg/mL (≈ 0.87 µM); with B. anthracis (read-out: B. anthracis MIC Range) it was 0.03 to 0.5 µg/mL (≈ 0.0522 to 0.87 µM); in the assay with A. baumannii 1705936, 4 µg/mL (≈ 6.96 µM); with E. coli CAG12184 TolC, 0.5 µg/mL (≈ 0.87 µM); against P. aeruginosa ATCC27853, 8 µg/mL (≈ 13.9 µM); in the assay with B. mallei, 0.03 to 0.5 µg/mL (≈ 0.0522 to 0.87 µM). The MIC in the assay on K. pneumoniae 1705966 was 0.5 µg/mL (≈ 0.87 µM); in the assay with E. coli 1705878 it was 1 µg/mL (≈ 1.74 µM); with B. pseudomallei (read-out: B. pseudomallei MIC Range), 1 to 8 µg/mL (≈ 1.74 to 13.9 µM); in the assay with E. coli ATCC25922 (setting [3]), 1 µg/mL; in the assay on E. coli ATCC25922 (setting [4]), 0.5 µg/mL (≈ 0.87 µM); against K. pneumoniae 1705949 it was 1 µg/mL (≈ 1.74 µM). In addition, the MIC is 0.06 to 1 µg/mL (≈ 0.104 to 1.74 µM) with Y. pestis (Yersinia pestis); 2 µg/mL in assay [1]; 0.5 µg/mL (≈ 0.87 µM) in the assay with E. coli MG1655 parent; 0.5 µg/mL (≈ 0.87 µM) against S. aureus 11540 MRSA; 4 µg/mL (≈ 6.96 µM) against P. aeruginosa 1705886; 0.25 µg/mL (≈ 0.435 µM) in assay [2]. Further, the MIC with F. tularensis fell in the range of 0.03 to 0.5 µg/mL (≈ 0.0522 to 0.87 µM). Moreover, the MIC50 was found to be 0.12 µg/mL (≈ 0.209 µM) with B. anthracis (read-out: B. anthracis MIC50); 0.06 µg/mL (≈ 0.104 µM) in the assay with B. mallei; 2 µg/mL (≈ 3.48 µM) with B. pseudomallei (read-out: B. pseudomallei MIC50); 0.25 µg/mL (≈ 0.435 µM) in the assay on Y. pestis (Yersinia pestis); 0.06 µg/mL (≈ 0.104 µM) in the assay with F. tularensis. The MIC90 came to 0.25 µg/mL (≈ 0.435 µM) in the assay on B. anthracis (read-out: B. anthracis MIC90); 0.12 µg/mL (≈ 0.209 µM) in the assay with B. mallei; 4 µg/mL (≈ 6.96 µM) with B. pseudomallei (read-out: B. pseudomallei MIC90); 0.5 µg/mL (≈ 0.87 µM) in the assay with Y. pestis (Yersinia pestis, read-out: Y. pestis MIC90); 0.12 µg/mL (≈ 0.209 µM) with F. tularensis (read-out: F. tularensis MIC90).
For the molecule `C[C@H](NCCCNC(=N)N)c1ccc(-n2cc3cc(-c4cc(C5CCC(CN)CC5)cc(Cl)c4F)[nH]c3nc2=O)cc1` (stereo partly shown) [Compound 8], the MIC against A. baumannii 1705943 was 0.5 µg/mL (≈ 0.843 µM); in the assay with A. baumannii 1705936, 1 µg/mL (≈ 1.69 µM); with E. coli CAG12184 TolC, 0.25 µg/mL (≈ 0.421 µM); against P. aeruginosa ATCC27853 it was 4 µg/mL (≈ 6.74 µM); in the assay on B. mallei it was 0.03 to 0.25 µg/mL (≈ 0.0506 to 0.421 µM); with P. aeruginosa 1705904, 4 µg/mL (≈ 6.74 µM). Further, the MIC in the assay with K. pneumoniae 1705966 is 1 µg/mL (≈ 1.69 µM); in the assay on E. coli 1705878, 1 µg/mL (≈ 1.69 µM); with E. coli ATCC25922 (setting [3]) it was 2 µg/mL; with E. coli ATCC25922 (setting [4]) it was 0.5 µg/mL (≈ 0.843 µM); with K. pneumoniae 1705949, 2 µg/mL (≈ 3.37 µM); in the assay on Y. pestis (Yersinia pestis), 0.03 to 0.5 µg/mL (≈ 0.0506 to 0.843 µM). For the same molecule, the MIC in assay [1] is 4 µg/mL; with E. coli MG1655 parent, 0.25 µg/mL (≈ 0.421 µM); with S. aureus 11540 MRSA, 0.25 µg/mL (≈ 0.421 µM); in the assay on P. aeruginosa 1705886, 4 µg/mL (≈ 6.74 µM); in [2] it was 0.5 µg/mL (≈ 0.843 µM); in the assay with F. tularensis, 0.03 to 2 µg/mL (≈ 0.0506 to 3.37 µM). In addition, the results for the MIC50 in the assay with B. mallei, in the assay with Y. pestis (Yersinia pestis) and in the assay on F. tularensis were ≤ 0.03 µg/mL, 0.12 µg/mL (≈ 0.202 µM) and 0.06 µg/mL (≈ 0.101 µM), respectively. Further, in the assay on B. mallei, the MIC90 is 0.12 µg/mL (≈ 0.202 µM). Moreover, in the assay on Y. pestis, the “Y. pestis MIC50” value came out at 0.06 µg/mL.
With `C=CC[C@H](NCCCNC(=N)N)c1ccc(-n2cc3cc(-c4cc(CCC[C@H](C)N)cc(Cl)c4F)[nH]c3nc2=O)cc1` [Compound 9], the MIC in the assay with A. baumannii 1705943 was 0.25 µg/mL (≈ 0.421 µM); with A. baumannii 1705936 it was 0.5 µg/mL (≈ 0.843 µM); with E. coli CAG12184 TolC, 0.25 µg/mL (≈ 0.421 µM); in the assay with P. aeruginosa ATCC27853, 2 µg/mL (≈ 3.37 µM); in the assay with P. aeruginosa 1705904, 4 µg/mL (≈ 6.74 µM); in the assay on K. pneumoniae 1705966, 0.25 µg/mL (≈ 0.421 µM). Also, the MIC in the assay with E. coli 1705878 was 0.5 µg/mL (≈ 0.843 µM); with E. coli ATCC25922 (setting [3]) it was 0.5 µg/mL; in the assay on E. coli ATCC25922 (setting [4]), 0.25 µg/mL (≈ 0.421 µM); against K. pneumoniae 1705949, 0.5 µg/mL (≈ 0.843 µM); in assay [1], 0.5 µg/mL; in the assay on E. coli MG1655 parent, 0.25 µg/mL (≈ 0.421 µM). Besides, the values for the MIC (against S. aureus 11540 MRSA; in the assay with P. aeruginosa 1705886; in assay [2]) were 0.25 µg/mL (≈ 0.421 µM), 2 µg/mL (≈ 3.37 µM) and 0.25 µg/mL (≈ 0.421 µM), respectively.
Consider `CN(C)c1cc(NC(=O)CNC(C)(C)C)c(O)c2c1C[C@H]1C[C@H]3[C@H](N(C)C)C(O)=C(C(N)=O)C(=O)[C@@]3(O)C(O)=C1C2=O` [Tigecycline, reference compound], for which the MIC in the assay with A. baumannii 1705943 was 0.125 µg/mL (≈ 0.213 µM); with A. baumannii 1705936 it was 2 µg/mL (≈ 3.41 µM); against E. coli CAG12184 TolC, 0.125 µg/mL (≈ 0.213 µM); against P. aeruginosa ATCC27853 it was 8 µg/mL (≈ 13.7 µM); in the assay with P. aeruginosa 1705904, > 32 µg/mL; with K. pneumoniae 1705966, 0.5 µg/mL (≈ 0.854 µM). Further, the MIC against E. coli 1705878 is 0.5 µg/mL (≈ 0.854 µM); in the assay with E. coli ATCC25922 (setting [3]) it was 0.25 µg/mL; in the assay on E. coli ATCC25922 (setting [4]), 0.125 µg/mL (≈ 0.213 µM); against K. pneumoniae 1705949, 1 µg/mL (≈ 1.71 µM); in [1], ≤ 0.06 µg/mL; in the assay with E. coli MG1655 parent, 0.25 µg/mL (≈ 0.427 µM). For the same molecule, the MIC is 0.25 µg/mL (≈ 0.427 µM) in the assay with S. aureus 11540 MRSA, 8 µg/mL (≈ 13.7 µM) against P. aeruginosa 1705886 and ≤ 0.06 µg/mL in assay [2].
Turning to `NC[C@H]1O[C@H](O[C@H]2[C@H](O)[C@@H](O[C@H]3O[C@H](CO)[C@@H](O)[C@H](N)[C@H]3O)[C@H](N)C[C@@H]2N)[C@H](N)C[C@@H]1O` [Tobramycin, reference compound], the MIC in the assay on A. baumannii 1705943 is ≤ 0.25 µg/mL; against A. baumannii 1705936, 8 µg/mL (≈ 17.1 µM); in the assay on E. coli CAG12184 TolC, 1 µg/mL (≈ 2.14 µM); with P. aeruginosa ATCC27853, 0.5 µg/mL (≈ 1.07 µM); in the assay with P. aeruginosa 1705904, 128 µg/mL (≈ 274 µM); with K. pneumoniae 1705966, ≤ 0.25 µg/mL. Besides, the MIC was 64 µg/mL (≈ 137 µM) with E. coli 1705878; 1 µg/mL in the assay with E. coli ATCC25922 (setting [3]); 1 µg/mL (≈ 2.14 µM) with E. coli ATCC25922 (setting [4]); > 128 µg/mL with K. pneumoniae 1705949; > 128 µg/mL in [1]; 1 µg/mL (≈ 2.14 µM) with E. coli MG1655 parent. The MIC against S. aureus 11540 MRSA is 0.5 µg/mL (≈ 1.07 µM); against P. aeruginosa 1705886 it was 0.5 µg/mL (≈ 1.07 µM); in assay [2], 16 µg/mL (≈ 34.2 µM).
